Data as given in paper PMC7318222, “A Family of Water‐Immiscible, Dipolar Aprotic, Diamide Solvents from Succinic Acid” (Chemsuschem, 2020).

Tests used:
human U2-OS cells = experiment: CALUX cytotoxicity assay; assay type: cell-based; conditions: for LEC cytotoxicity: PC20, 24 h exposure
From the text: (§1) DCM ≥99.5%, chloroform ≥99.5%, DMSO ≥99.0% were purchased from VWR. N,N-diethyl-4-nitroaniline ≥98.0% was purchased from Alfa Aeser. Cyrene was supplied by Circa group. N-butylpyrrolidinone was supplied by Eastman chemicals. N,N-dimethylformamide 99.9% and N,N-dimethylacetamide 99.9% were purchased from Fischer. The flakes of Ultrason® E3020 P Polyarylethersulfone of 55,000 Da were obtained from INGE.BASF, Germany. The CALUX cell lines have been described previously.[1] They are based on human U2-OS cells (ATCC, HTB-96) stably transfected with an expression construct for the full-length human receptor under investigation, and a reporter construct consisting of multimerized responsive elements for the cognate receptor coupled to a minimal promoter element (TATA) and a luciferase gene. Cells were maintained as described previously,[2] using cell culture media and supplements from Fisher Scientific as described in the experimental procedures section. […]
(§2) In vitro reporter gene assays
(§3) The automated CALUX assays were carried out similarly as described earlier,[12] with some adaptations. In brief, the assay was performed in CO2 independent medium (Fisher Scientific, […]
(§4) supplement (Fisher Scientific, 11574466), 10 U/mL penicillin and 10 µg/mL streptomycin. A cell suspension in assay medium was made of 1 × 10^5cells/mL, and white 384-wells plates were seeded with 30 µl cell suspension/well. After 24 h, exposure medium was prepared. A dilution series in 0.5log unit increments of each test compound (in DMSO) was added to a 96-wells plate containing assay medium (2% v/v). Of this exposure mixture, 30 µl was added to the assay plates containing the CALUX cells, resulting in a final DMSO concentration of 1%. Additionally, DMSO blanks and a full dose response curve of the relevant reference compound were included on each plate. All samples were tested in triplicate. The preparation of the compound dilution series as well as the exposure of the cells were performed on a Hamilton StarLET liquid handling robot coupled to a Cytomat incubator.
(§5) Directly after exposure, plates were sealed with non-breathing plate seals (Plate sealer, easy seal transparent; Greiner-Bio-One, 676001). After 24 h the exposure medium was removed using an EL406 washer-dispenser (BioTek) and 10 µl/well triton lysisbuffer was added by the EL406.
Subsequently, the luciferase signal was measured in a luminometer (InfinitePro coupled to a Connect Stacker, both TECAN). In order to be able to detect receptor antagonism, several assays were also performed in antagonistic mode. The assay procedure was as described above, with the only exception that the EC50 concentration of the reference agonist was present during the exposure.
The luminometer data was analysed as follows; the average of the triplicate wells was determined, and the average blank (DMSO) value was subtracted. For receptor-based assays the maximum response elicited by the reference compound was set to 100% (full receptor- or pathway activation), and the other values were scaled accordingly. GraphPad Prism was used to fit a sigmoidal curve through the data (four parameters, variable slope). The PC10 concentration was reported as the lowest effect concentration (LEC), which is defined as the concentration where the response elicited by the test compound equals 10% of the maximum response of the reference compound. For antagonist- and cytotoxicity experiments, PC20 values were determined instead, which was defined as the concentration where the test compound causes a 20% decrease in the basal signal, which was […]
(§6) curve, the signal induction above background (DMSO) was determined, and the concentration where the compound elicited a 1.5-fold increase above background was used as LEC.

AhR = target: T1, AhR (Homo sapiens, UniProt P35869); experiment: AhR CALUX reporter gene assay; assay type: cell-based; design: key: –: no effect observed up to the highest test concentration; conditions: PC10, 24 h exposure
T1 construct: expression construct for the full-length human receptor under investigation; expressed in transfected cells; host or cells: human U2-OS cells (ATCC HTB-96), stably transfected
T1 sequence (P35869 11-848): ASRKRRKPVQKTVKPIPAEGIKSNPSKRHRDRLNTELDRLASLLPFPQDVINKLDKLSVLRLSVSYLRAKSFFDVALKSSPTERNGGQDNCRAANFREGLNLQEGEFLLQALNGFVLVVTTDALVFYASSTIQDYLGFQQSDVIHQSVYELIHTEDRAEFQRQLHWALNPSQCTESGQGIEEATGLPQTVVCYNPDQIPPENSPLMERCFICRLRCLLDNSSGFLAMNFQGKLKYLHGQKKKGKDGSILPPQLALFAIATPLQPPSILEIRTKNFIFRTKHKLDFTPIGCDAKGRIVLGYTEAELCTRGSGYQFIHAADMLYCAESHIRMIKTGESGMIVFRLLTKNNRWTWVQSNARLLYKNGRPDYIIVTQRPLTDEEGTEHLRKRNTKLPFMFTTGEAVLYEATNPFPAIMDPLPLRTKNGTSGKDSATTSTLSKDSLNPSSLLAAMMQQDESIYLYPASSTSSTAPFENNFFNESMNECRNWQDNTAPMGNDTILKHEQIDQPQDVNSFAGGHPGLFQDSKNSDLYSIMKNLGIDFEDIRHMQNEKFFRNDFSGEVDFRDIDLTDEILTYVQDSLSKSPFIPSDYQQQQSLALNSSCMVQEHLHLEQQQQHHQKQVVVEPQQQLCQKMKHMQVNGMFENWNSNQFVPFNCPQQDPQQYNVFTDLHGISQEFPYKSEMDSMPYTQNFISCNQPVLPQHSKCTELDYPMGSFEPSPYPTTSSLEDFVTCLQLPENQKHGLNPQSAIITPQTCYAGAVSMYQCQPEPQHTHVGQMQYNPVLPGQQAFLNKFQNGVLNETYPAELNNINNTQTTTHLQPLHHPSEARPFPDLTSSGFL
From the text: as §1, with “2-methylimidazole 99.0%, zinc(II) nitrate hexahydrate ≥99.0%, para-cymene 99.0%, 1,4-dioxane 99.8% (anhydrous), 4-nitroaniline ≥99.0%, 1-octanol ≥99.0%, diglyme ≥99.0%, DMSO-d6 (99.8% D) and chloroform-d (99.8% D) were purchased from Sigma-Aldrich. Toluene ≥99.0%, hexane ≥99.5%, DCM” for “DCM”
as §2, §3, §4, §5
Subsequently, the luciferase signal was measured in a luminometer (InfinitePro coupled to a Connect Stacker, both TECAN). In order to be able to detect receptor antagonism, several assays were also performed in antagonistic mode. […]
The luminometer data was analysed as follows; the average of the triplicate wells was determined, and the average blank (DMSO) value was subtracted. […] For antagonist- and cytotoxicity experiments, PC20 values were determined instead, which was defined as the concentration where the test compound causes a 20% decrease in the basal signal, which was […]
as §6

| Compound | LEC cytotoxicity (human U2-OS cells) [Log M] | LEC AhR (AhR) | cytotoxicity lowest effect concentration (LEC) (human U2-OS cells) [mM] |
| --- | --- | --- | --- |
| CCCCN(CCCC)C(=O)CCC(=O)N(CCCC)CCCC [TBSA, N,N,N′,N′‐tetrabutylsuccindiamide] | −3.4 | – |  |
| CCCCN(CC)C(=O)CCC(=O)N(CC)CCCC [EBSA, N,N′‐diethyl‐N,N′‐dibutylsuccindiamide] | −3.1 | – |  |
| CN1CCCC1=O [NMP, N‐methyl‐2‐pyrrolidone, reference compound] | −1.4 | −2.0 Log M | 40 |
| CCCCN(C)C(=O)CCC(=O)N(C)CCCC [MBSA, N,N′‐dimethyl‐N,N′‐dibutylsuccindiamide] | −2.3 | – |  |
| CCCCN1CCCC1=O [NBP, N‐Butylpyrrolidinone, reference compound] | −2.1 | – |  |
